From US7417025B2, “Use of poly-α2,8-sialic acid mimetic peptides to modulate NCAM functions” (Centre National de la Recherche Scientifique, priority 2002, dated 2008)

Key:
[1] = system: subventricular zone explants (neuronal precursors); experiment: Subventricular zone (SVZ) explant culture: cell migration in vitro; type: cell-based, mouse; details: for Rate of migration of the neuronal precursors compared to the corresponding control peptide: FIG. 7, controls reverse p65 and p22
Experimental: Cultures of SVZ explants were performed as described in Chazal et al., precited. Briefly, 1-day-old mice were killed by rapid decapitation. Brains were dissected out and sectionned by Vibratome (Leica). The SVZ from the lateral wall of the anterior lateral ventricle horn was dissected out in HBSS medium (LIFE TECHNOLOGIES) and cut into 200-300 μm diameter explants. The explants were mixed with Matrigel (BECKTON DICKINSON) and cultured in four-well dishes. After polymerisation, the gel was overlaid with 400 μl of serum-free medium containing B-27 supplement (LIFE TECHNOLOGIES), in the presence or the absence of 40 μM of peptides (p65, p66, reverse p65, p21 or p22) and 70 U of Endo N per milliliter.
After 48 h in culture, explants were examining directly (SVZ) or after overnight fixation with a 4% paraformaldehyde solution in PBS and immunostaining (DRGs). Observation was done using 2, 5×, 5×, 10× and 32× objectives (Axiovert 35M, ZEISS). Images were collected with a video camera (Cool View, PHOTONIC SCIENCE) and analysed using image-processing software (Visiolab1000, BIOCOM). Mean migration distance (calculated on five different experiments, including at least five explants per condition) or mean length of the longest neurite (calculated on two different experiments, including at least eight explants per condition), was the distance in micrometers between the explant edge and the border of the cell migration front. Four measurements were performed for each explant. The significance of the differences between the control and the different experimental conditions was calculated by Student's t test.

MenB anti-PSA antibody = experiment: Competitive binding to PSA-NCAM expressing cells (MenB)
Experimental: FIGS. 12B, 12C and 12D: competitive binding to PSA-NCAM expressing cells. B: pre-incubation of p65 (1 mM) or p66 (1 mM) with MenB anti-PSA antibody. C: 30H12 anti-PSA antibody without peptide. D: pre-incubation of p65 (1 mM) or p66 (1 mM) with 30H12 anti-PSA antibody.
(§1) The specificity of p65 and p66 peptides was tested in a competition assay using anti-PSA antibodies and PSA-NCAM expressing cells. […] The binding specificity was examined in greater detail by testing peptide recognition by another anti-PSA mononclonal antibody (MenB). […] Thus, p65 and p66 mimotopes appear to be specific for a unique (idiotypic) determinant.

[2] = system: subventricular zone explants (neuronal precursors); experiment: Subventricular zone (SVZ) explant culture: cell migration in vitro; type: cell-based, mouse; details: 0.4 μM peptide
chick retina axons = experiment: Intravitreal injection in chick embryo, retinal whole mount: axon fasciculation and guidance in vivo; details: injected into chicken embryo eyes at E3, retina observed at E9
Experimental: The dashed rectangle indicates the area from which photographs were taken. Arrows point toward the optic fissure. Axons of E9 chick retina injected at E3 with the reverse peptide (C,F) or the p65 peptide (D,G,E,H). Arrowheads show examples of axons that leave their fascicle and run perpendicularly to it.
Injections were performed as described in Monnier et al. (Developmental Biology, 2001, 229, 1-14). Briefly, a 2×2 cm window was cut into the shell over E3 chick embryos. One μl of Fast green with 10 mM of p65 or reverse peptide was injected into the right eye vitreous body using a capillary. After a five-days incubation at 37° C., (E8) retinae were dissected, spread onto nitrocellulose filters (MILIPORE), and fixed with 4% paraformaldehyde solution in PBS. Two small DiI (1,1′-dioctadecyl-3,3,3′,3′-tetramethylindocarbocyanine perchlorate) crystals were applied dorsally to the optic fissure. Retinae were stored in the dark at 37° C. for 10 days until the dye reached the axonal growth cones in the fissure, mounted in glycerol:PBS (9:1, v:v) and analysed using confocal microscopy.

[3] = system: Glial Fibrillary acidic Protein (GFAP) expression; experiment: Reactive gliosis after spinal cord injury (GFAP staining); type: in vivo, mouse; details: D5 following surgery
Experimental: At D5, lesioned animals which received either p65 (n=3) or reversed p65 (n=3) were transcardiacally perfused. Spinal cords were sectioned in the sagittal plane at 20 μm intervals in blocks of 10 mm length at the lesion site. To examine lesion extent, Nissl staining was performed in series of 1-in-6 sections in all animals. Series of 1-in-3 sections were stained with the MenB anti-PSA (mouse IgM) and/or anti-GFAP (mouse IgG) antibodies.
To assess the effect of the peptide, quantification of the Glial Fibrillary acidic Protein (GFAP) expression as an index of reactive gliosis, was undertaken in a subset of animals taken D5 following surgery. These animals were selected in a blinded manner for quantification. 3 p65 (10 slices per animal) and 3 p65-reverse (10 slices per animal) animals were analyzed. Double-labelling was performed with MenB anti-PSA antibody. Quantification was also performed in a blinded manner.

[4] = system: 30H12 monoclonal antibody; experiment: Competitive binding to PSA-NCAM expressing cells (30H12); parameters: dose or concentration left out as unconfirmed
Experimental: FIGS. 12B, 12C and 12D: competitive binding to PSA-NCAM expressing cells. B: pre-incubation of p65 (1 mM) or p66 (1 mM) with MenB anti-PSA antibody. C: 30H12 anti-PSA antibody without peptide. […]
as §1

Row | Sequence | Rate of migration of the neuronal precursors compared to the corresponding control peptide [1] | Recognition of PSA-NCAM by MenB after pre-incubation with peptide (MenB anti-PSA antibody; FIG. 12C) | Antibody specificity of peptide binding (30H12 versus MenB) (MenB anti-PSA antibody; in words) | Increase in the rate of migration of the neuronal precursors compared with the control without peptide [2] | Axon guidance and fasciculation in retina in vivo (chick retina axons) | Rate of migration of the neuronal precursors and chain-like arrangement ([1]; SVZ explants in Matrigel, FIG. 4) | Migration of precursors from NCAM −/− mice ([1]; SVZ explants of NCAM −/− mice, FIG. 6) | Concentration from which the optimal effect on cell migration is observed ([1]; dose-response curve) | PSA-dependence of the migration effect ([1]; with endo N treatment) | Reduction of reactive gliosis (GFAP staining) compared with reverse p65-treatment [3] | Binding of 30H12 monoclonal antibody to PSA-NCAM expressing cells after pre-incubation with peptide [4]
1 | DSPLVPFIDFHP [p21] | significant decrease |  |  |  |  |  |  |  |  |  | 
2 | CSSVTAWTTGCG [p65] | significant increase | did not prevent recognition of PSA-NCAM | bind only to 30H12 | +40% | axons guidance and fasciculation defects | increases the rate of migration | did not reverse the impaired migration | ≥ 0.4 µM | abolished by endo N treatment | 40% | prevented its binding
